According to ChEMBL document CHEMBL5705884, “Breaching the DNA damage checkpoint via PF-00477736, a novel small-molecule inhibitor of checkpoint kinase 1” (Mol Cancer Ther, 2008):
Activity calls are given as the source filed them. The calls are words filed in the database; no cut-off is given here.

What was measured:
[1] = test system: MDA-MB-231; assay: Antiproliferative activity against human MDA-MB-231 cells deficit of p53 expression assessed as inhibition of cell growth measured after 96 hrs by MTT assay; type: functional, cell-based; conditions: MDA-MB-231, 96 h
[2] = test system: MDA-MB-231; assay: Potentiation factor, ratio of IC50 for human MDA-MB-231 cells to IC50 for human MDA-MB-231 cells in presence of carboplatin; type: functional
[3] = test system: HT-29; assay: Inhibition of cell cycle arrest in human HT-29 cells assessed as inhibition of gemcitabine induced S-phase arrest pretreated with gemcitabine followed by compound treatment and measured after 10 to 48 hrs by flow cytometry analysis; type: functional, cell-based; conditions: time 10-48 hrs
[4] = test system: COLO 205; assay: Antitumor activity against human COLO 205 cells xenografted in athymic nude mouse model assessed as tumor growth delay by measuring test to control tumor ratio at 30 mg/kg, ip administered once daily in presence of gemcitabine (Gemcitabine alone = 3%); type: functional
[5] = test system: COLO 205; assay: Antitumor activity against human COLO 205 cells xenografted in athymic nude mouse model assessed as tumor growth inhibition at 24 mg/kg, ip administered twice daily in presence of gemcitabine (Gemcitabine alone= 58%); type: functional; conditions: read-out: TGI
[6] = test system: COLO 205; assay: Antitumor activity against human COLO 205 cells xenografted in athymic nude mouse model assessed as potentiated tumor growth inhibition at 4 mg/kg, ip administered twice daily in presence of gemcitabine relative to control; type: functional; conditions: read-out: TGI
[7] = test system: COLO 205; assay: Antitumor activity against human COLO 205 cells xenografted in athymic nude mouse model assessed as gross log cell kill at 15 mg/kg, ip administered once daily in presence of gemcitabine (Gemcitabine alone = 0.27%); type: functional
[8] = test system: COLO 205; assay: Antitumor activity against human COLO 205 cells xenografted in athymic nude mouse model assessed as tumor growth inhibition at 7.5 mg/kg, ip administered once daily in presence of gemcitabine (Gemcitabine alone = 40%); type: functional; conditions: read-out: TGI
[9] = test system: HT-29; assay: Inhibition of gemcitabine induced cell cycle arrest in human HT-29 cells assessed as increase in G0-G1 cell population pretreated with gemcitabine followed by compound treatment and measured after 10 to 48 hrs by flow cytometry analysis; type: functional, cell-based; conditions: time 10-48 hrs
[10] = test system: HT-29; assay: Induction of apoptosis in gemcitabine induced human HT-29 cells assessed as apoptotic cell death measured after 24 hrs by PI staining based flow cytometry analysis (reference value: 0.7%); type: functional
[11] = AUC (0 to infinity) in Sprague-Dawley rat at 4 mg/kg, iv administered as bolus dose by LCMS analysis; type: ADME, organism-based; conditions: in vivo
[12] = test system: HT-29; assay: Potentiation factor, ratio of IC50 for human HT-29 cells to IC50 for human HT-29 cells in presence of carboplatin; type: functional
[13] = test system: COLO 205; assay: Antitumor activity against human COLO 205 cells xenografted in athymic nude mouse model assessed as potentiated tumor growth inhibition at 7.5 mg/kg, ip administered twice daily in presence of gemcitabine relative to control; type: functional; conditions: read-out: TGI
[14] = test system: CA46; assay: Inhibition of camptothecin induced DNA damage in mutated human CA46 cells assessed as increase in mitotic index by measuring histone H3 phosphorylation at S10 residue at 0.001 to 1 uM measured after 16 hrs presence of nocodazole by dot blot assay; type: functional, cell-based; conditions: CA46, 16 h
[15] = test system: COLO 205; assay: Antitumor activity against human COLO 205 cells xenografted in athymic nude mouse model assessed as gross log cell kill at 30 mg/kg, ip administered once daily in presence of gemcitabine (Gemcitabine alone = 0.27%); type: functional
[16] = molecular target: Macrophage colony-stimulating factor 1 receptor (Homo sapiens, UniProt P07333); assay: Inhibition of Fms (unknown origin)
[17] = Cmax in nu/nu mouse at 4 mg/kg, ip by LCMS analysis; type: ADME, organism-based; conditions: in vivo
[18] = test system: HT-29; assay: Potentiation factor, ratio of IC50 for human HT-29 cells to IC50 for human HT-29 cells in presence of mytomicin-C; type: functional
[19] = Terminal half life in Sprague-Dawley rat at 4 mg/kg, iv administered as bolus dose by LCMS analysis; type: ADME, organism-based; conditions: in vivo, read-out: beta t1/2 (converted)
[20] = test system: COLO 205; assay: Antitumor activity against human COLO 205 cells xenografted in athymic nude mouse model assessed as tumor growth delay by measuring test to control tumor ratio at 24 mg/kg, ip administered twice daily in presence of gemcitabine (Gemcitabine alone= 8%); type: functional
[21] = test system: COLO 205; assay: Antitumor activity against human COLO 205 cells xenografted in athymic nude mouse model assessed as potentiated tumor growth inhibition at 30 mg/kg, ip administered twice daily in presence of gemcitabine relative to control; type: functional; conditions: read-out: TGI
[22] = test system: HT-29; assay: Cytotoxicity in human HT-29 cells assessed as cell survival at 540 nM measured after 4 to 48 hrs by coulter counter method relative to control; type: functional; conditions: time 4-48 hrs, read-out: Activity
[23] = test system: COLO 205; assay: Antitumor activity against human COLO 205 cells xenografted in athymic nude mouse model assessed as gross log cell kill at 7.5 mg/kg, ip administered twice daily in presence of gemcitabine (Gemcitabine alone = 0.27%); type: functional
[24] = test system: COLO 205; assay: Antitumor activity against human COLO 205 cells xenografted in athymic nude mouse model assessed as potentiated tumor growth inhibition at 20 mg/kg, ip administered once daily in presence of gemcitabine relative to control; type: functional; conditions: read-out: TGI
[25] = molecular target: Proto-oncogene tyrosine-protein kinase receptor Ret (Homo sapiens, UniProt P07949); assay: Inhibition of Ret (unknown origin)
[26] = test system: COLO 205; assay: Antitumor activity against human COLO 205 cells xenografted in athymic nude mouse model assessed as gross log cell kill at 4 mg/kg, ip administered twice daily in presence of gemcitabine (Gemcitabine alone = 0.5%); type: functional
[27] = test system: COLO 205; assay: Potentiation factor, ratio of IC50 for human COLO 205 cells to IC50 for human COLO 205 cells in presence of gemcitabine; type: functional
[28] = test system: COLO 205; assay: Antitumor activity against human COLO 205 cells xenografted in athymic nude mouse model assessed as gross log cell kill at 30 mg/kg, ip administered twice daily in presence of gemcitabine (Gemcitabine alone = 0.27%); type: functional
[29] = test system: COLO 205; assay: Antitumor activity against human COLO 205 cells xenografted in athymic nude mouse model assessed as tumor growth delay by measuring test to control tumor ratio at 15 mg/kg, ip administered once daily in presence of gemcitabine (Gemcitabine alone = 3%); type: functional
[30] = test system: COLO 205; assay: Antitumor activity against human COLO 205 cells xenografted in athymic nude mouse model assessed as tumor growth inhibition at 30 mg/kg, ip administered once daily in presence of gemcitabine (Gemcitabine alone = 40%); type: functional; conditions: read-out: TGI
[31] = test system: COLO 205; assay: Antitumor activity against human COLO 205 cells xenografted in athymic nude mouse model assessed as tumor growth inhibition at 7.5 mg/kg, ip administered twice daily in presence of gemcitabine (Gemcitabine alone = 40%); type: functional; conditions: read-out: TGI
[32] = test system: COLO 205; assay: Antitumor activity against human COLO 205 cells xenografted in athymic nude mouse model assessed as potentiated tumor growth inhibition at 30 mg/kg, ip administered once daily in presence of gemcitabine relative to control; type: functional; conditions: read-out: TGI
[33] = test system: HT-29; assay: Potentiation of gemcitabine induced cytotoxicity in human HT-29 cells assessed as cell survival at 360 nM measured after 4 to 48 hrs by coulter counter method relative to gemcitabine alone; type: functional; conditions: time 4-48 hrs, read-out: Activity
[34] = test system: COLO 205; assay: Antiproliferative activity against human COLO 205 cells deficit of p53 expression assessed as inhibition of cell growth measured after 96 hrs by MTT assay; type: functional, cell-based; conditions: COLO 205, 96 h

Proto-oncogene tyrosine-protein kinase receptor Ret, sequence (P07949 whole entry): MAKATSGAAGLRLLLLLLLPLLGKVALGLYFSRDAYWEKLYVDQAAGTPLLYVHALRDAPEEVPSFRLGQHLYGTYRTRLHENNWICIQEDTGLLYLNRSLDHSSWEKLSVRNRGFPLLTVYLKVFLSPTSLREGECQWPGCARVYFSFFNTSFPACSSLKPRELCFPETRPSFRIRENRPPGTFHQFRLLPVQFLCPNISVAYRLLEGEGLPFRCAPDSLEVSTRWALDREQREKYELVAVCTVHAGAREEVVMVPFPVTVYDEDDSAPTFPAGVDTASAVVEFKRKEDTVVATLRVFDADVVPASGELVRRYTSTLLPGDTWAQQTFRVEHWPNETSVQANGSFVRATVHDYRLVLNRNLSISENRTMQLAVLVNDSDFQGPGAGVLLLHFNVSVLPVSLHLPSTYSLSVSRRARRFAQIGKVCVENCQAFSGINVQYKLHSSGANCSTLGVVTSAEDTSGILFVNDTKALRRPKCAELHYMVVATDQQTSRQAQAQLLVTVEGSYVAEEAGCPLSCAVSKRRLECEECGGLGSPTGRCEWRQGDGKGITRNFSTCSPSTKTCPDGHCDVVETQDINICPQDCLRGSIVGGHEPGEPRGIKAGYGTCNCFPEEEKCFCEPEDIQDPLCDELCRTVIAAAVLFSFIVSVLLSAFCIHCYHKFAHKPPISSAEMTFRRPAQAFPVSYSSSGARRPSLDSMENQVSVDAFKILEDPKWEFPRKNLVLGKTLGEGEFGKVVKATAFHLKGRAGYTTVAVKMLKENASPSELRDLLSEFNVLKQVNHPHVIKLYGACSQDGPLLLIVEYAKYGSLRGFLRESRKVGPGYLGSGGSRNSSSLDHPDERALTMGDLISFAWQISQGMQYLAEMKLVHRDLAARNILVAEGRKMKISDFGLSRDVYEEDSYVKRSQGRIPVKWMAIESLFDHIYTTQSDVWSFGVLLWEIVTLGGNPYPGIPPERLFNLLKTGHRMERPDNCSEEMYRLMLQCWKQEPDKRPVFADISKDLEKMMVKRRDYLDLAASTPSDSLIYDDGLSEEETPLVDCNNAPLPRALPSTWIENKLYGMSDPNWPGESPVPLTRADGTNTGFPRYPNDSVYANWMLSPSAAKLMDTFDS
Macrophage colony-stimulating factor 1 receptor, sequence (P07333 whole entry): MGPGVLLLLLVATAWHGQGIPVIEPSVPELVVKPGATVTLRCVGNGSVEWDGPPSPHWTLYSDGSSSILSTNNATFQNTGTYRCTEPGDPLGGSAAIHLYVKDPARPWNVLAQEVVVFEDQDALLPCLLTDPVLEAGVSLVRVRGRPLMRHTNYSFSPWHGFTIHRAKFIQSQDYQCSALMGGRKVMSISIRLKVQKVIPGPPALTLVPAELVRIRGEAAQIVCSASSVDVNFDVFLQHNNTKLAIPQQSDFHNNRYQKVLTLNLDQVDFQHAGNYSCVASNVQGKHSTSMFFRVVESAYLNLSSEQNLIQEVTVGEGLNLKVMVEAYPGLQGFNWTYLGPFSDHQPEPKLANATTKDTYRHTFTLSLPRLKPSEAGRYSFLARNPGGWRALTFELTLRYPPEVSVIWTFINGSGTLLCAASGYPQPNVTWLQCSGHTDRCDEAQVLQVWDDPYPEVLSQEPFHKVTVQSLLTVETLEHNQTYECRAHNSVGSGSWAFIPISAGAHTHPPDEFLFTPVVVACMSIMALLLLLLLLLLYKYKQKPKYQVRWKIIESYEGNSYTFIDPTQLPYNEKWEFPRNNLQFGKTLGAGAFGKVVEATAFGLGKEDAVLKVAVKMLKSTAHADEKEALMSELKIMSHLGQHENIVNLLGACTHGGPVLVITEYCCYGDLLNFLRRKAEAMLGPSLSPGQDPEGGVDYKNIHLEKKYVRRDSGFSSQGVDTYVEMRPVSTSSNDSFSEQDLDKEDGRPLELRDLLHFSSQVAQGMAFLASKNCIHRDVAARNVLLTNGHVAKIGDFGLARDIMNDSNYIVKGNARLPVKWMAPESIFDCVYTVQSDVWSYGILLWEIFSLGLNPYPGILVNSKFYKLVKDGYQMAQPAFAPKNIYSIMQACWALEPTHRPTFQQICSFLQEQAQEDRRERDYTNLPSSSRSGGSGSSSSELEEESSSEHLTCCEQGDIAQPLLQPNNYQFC

In the case of `Cn1cc(-c2[nH]c3cc(NC(=O)[C@H](N)C4CCCCC4)cc4c3c2C=NNC4=O)cn1`, the IC50 [1] is reported as 1400 nM, the PF50 [2] is reported as 2.55 and the inhibition [3] is reported as “Active”. It also gave a T/C [4] of 7.25, an inhibition in vivo at 24 mg/kg [5] of 81% and an inhibition in vivo at 4 mg/kg [6] of 12%. The LCK [7] was 0.71, the inhibition in vivo at 7.5 mg/kg [8] was 54% and the inhibition [9] was “Active”. For the same molecule, the Activity [10] was 5.2%, the AUC(0-inf) [11] was 5720 ng·h/mL and the PF50 [12] was 3. For the same molecule, the inhibition in vivo at 7.5 mg/kg [13] was 50%, the EC50 [14] was 45 nM and the LCK [15] was 0.66. For the same molecule, the IC50 [16] was 20 nM, the Cmax [17] was 270 ng/mL and the PF50 [18] was 3.7. The half-life [19] was 2.9 h, the T/C [20] was 12 and the inhibition in vivo at 30 mg/kg [21] was 64%. For the same molecule, the viability at 0.54 µM [22] was 83%, the LCK [23] was 1.21 and the inhibition in vivo at 20 mg/kg [24] was 43%. For the same molecule, the IC50 [25] was 80 nM, the LCK [26] was 0.5 and the PF50 [27] was 11.3. The LCK [28] was 0.89, the T/C [29] was 7.75 and the inhibition in vivo at 30 mg/kg [30] was 64%. For the same molecule, the inhibition in vivo at 7.5 mg/kg [31] was 70%, the inhibition in vivo at 30 mg/kg [32] was 41% and the viability at 0.36 µM [33] was 71%. For the same molecule, the IC50 [34] was 1300 nM.
